Holding throughout (assay): relative viability (nuclei count vs DMSO), 5 days (fraction); higher = more cells survive
Compound in assay [1]: O=C(Nc1cc(C(F)(F)F)cc(C(F)(F)F)c1)c1cc(Cl)ccc1O [IMD-0354] + CC(C)C[C@H](NC(=O)[C@H](Cc1ccccc1)NC(=O)c1cnccn1)B(O)O [Bortezomib] (partner 0.002 µM)
The method in brief: (§1)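 Lung cancer cell lines, seeded in 1536-well plates, were treated the following day by pin tool with a single drug or with five library-drug doses (not always all listed) in √10 steps on top of a fixed anchor-drug dose. Cells were fixed and nuclei stained in one step after 5 days, and nuclei were counted. Relative viability is the nuclei count for treated wells divided by that for vehicle wells, reported as medians of duplicate plates.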

Compound in assay [2]: O=C(Nc1cc(C(F)(F)F)cc(C(F)(F)F)c1)c1cc(Cl)ccc1O [IMD-0354] + COc1cc2c(Oc3ccc(NC(=O)C4(C(=O)Nc5ccc(F)cc5)CC4)cc3F)ccnc2cc1OCCCN1CCOCC1 [Foretinib] (partner 0.25 µM)
The method in brief: as §1

Compound in assay [3]: O=C(Nc1cc(C(F)(F)F)cc(C(F)(F)F)c1)c1cc(Cl)ccc1O [IMD-0354] + C[C@]1(O)C[C@@H](c2nc(-c3ccc4ccc(-c5ccccc5)nc4c3)c3c(N)nccn32)C1 [Linsitinib] (partner 1 µM)
A digest of the protocol:
as §1

Compound in assay [4]: Cc1cnc(CNC(=O)c2c(=O)c3ccc(N4CCCN(C)CC4)nc3n3c2sc2ccccc23)cn1 [CX-5461] + Cc1cc(Nc2cc(N3CCN(C)CC3)nc(Sc3ccc(NC(=O)C4CC4)cc3)n2)n[nH]1 [Tozasertib] (partner 0.1 µM)
The method in brief: as §1

Consider NCI-H1563, for which the relative viability was 1.01 in assay [1] (first compound 0.04 µM); 0.927 in assay [1] (first compound 0.1265 µM); 0.768 in assay [1] (first compound 0.4 µM); 0.403 in assay [1] (first compound 1.265 µM); 0.38 in assay [1] (first compound 4 µM); 1.06 in assay [2] (first compound 0.04 µM). For the same cell line, the relative viability worked out at 0.936 in assay [2] (first compound 0.1265 µM); 0.837 in assay [2] (first compound 0.4 µM); 0.388 in assay [2] (first compound 1.265 µM); 0.44 in assay [2] (first compound 4 µM); 1.25 in assay [3] (first compound 0.04 µM); 1.06 in assay [3] (first compound 0.1265 µM). Besides, the relative viability in assay [3] (first compound 0.4 µM) amounted to 1.11; in assay [3] (first compound 1.265 µM), 0.784; in assay [3] (first compound 4 µM), 0.457.
Take NCI-H1648: the relative viability amounted to 0.654 in assay [4] (first compound 0.03162 µM), 0.607 in assay [4] (first compound 0.1 µM), 0.397 in assay [4] (first compound 0.3162 µM) and 0.514 in assay [4] (first compound 1 µM).
For the cell line NCI-H1650, the relative viability in assay [4] (first compound 0.01 µM) came out at 0.398; in assay [4] (first compound 0.03162 µM) it was 0.389; in assay [4] (first compound 0.1 µM), 0.261; in assay [4] (first compound 0.3162 µM), 0.357; in assay [4] (first compound 1 µM), 0.239; in assay [1] (first compound 0.04 µM) it was 0.205. In addition, the relative viability in assay [1] (first compound 0.1265 µM) was 0.196; in assay [1] (first compound 0.4 µM), 0.189; in assay [1] (first compound 1.265 µM) it was 0.166; in assay [1] (first compound 4 µM) it was 0.197; in assay [2] (first compound 0.04 µM), 1.32; in assay [2] (first compound 0.1265 µM), 1.1. Further, the results for the relative viability in assay [2] (first compound 0.4 µM), in assay [2] (first compound 1.265 µM) and in assay [2] (first compound 4 µM) were 0.581, 0.207 and 0.245, respectively.
As to NCI-H1703, the relative viability came out at 0.234 in assay [1] (first compound 0.04 µM); 0.3 in assay [1] (first compound 0.1265 µM); 0.352 in assay [1] (first compound 0.4 µM); 0.168 in assay [1] (first compound 1.265 µM); 0.102 in assay [1] (first compound 4 µM); 0.407 in assay [2] (first compound 0.04 µM). Moreover, the relative viability in assay [2] (first compound 0.1265 µM) turned out to be 0.347; in assay [2] (first compound 0.4 µM) it was 0.368; in assay [2] (first compound 1.265 µM), 0.299; in assay [2] (first compound 4 µM) it was 0.16; in assay [3] (first compound 0.04 µM) it was 1.38; in assay [3] (first compound 0.1265 µM), 0.583. Moreover, the relative viability in assay [3] (first compound 0.4 µM) was 0.888; in assay [3] (first compound 1.265 µM), 0.125; in assay [3] (first compound 4 µM), 0.141.
In the case of NCI-H1792, the relative viability in assay [1] (first compound 0.04 µM) was 1.11; in assay [1] (first compound 0.1265 µM), 0.815; in assay [1] (first compound 0.4 µM), 0.688; in assay [1] (first compound 1.265 µM), 0.635; in assay [1] (first compound 4 µM), 0.321; in assay [3] (first compound 0.04 µM) it was 0.627. Also, the relative viability was 0.424 in assay [3] (first compound 0.1265 µM), 0.906 in assay [3] (first compound 0.4 µM), 0.471 in assay [3] (first compound 1.265 µM) and 0.293 in assay [3] (first compound 4 µM).
NCI-H1793: the relative viability in assay [4] (first compound 0.01 µM) is 0.281; in assay [4] (first compound 0.03162 µM) it was 0.332; in assay [4] (first compound 0.1 µM) it was 0.426; in assay [4] (first compound 1 µM), 0.315; in assay [2] (first compound 0.04 µM), 0.844; in assay [2] (first compound 0.1265 µM), 0.622. The relative viability in assay [2] (first compound 0.4 µM) amounted to 0.305; in assay [2] (first compound 1.265 µM), 0.22; in assay [2] (first compound 4 µM) it was 0.202; in assay [3] (first compound 0.04 µM), 1.15; in assay [3] (first compound 0.1265 µM), 0.802; in assay [3] (first compound 0.4 µM), 0.349. The relative viability in assay [3] (first compound 1.265 µM) came out at 0.298; in assay [3] (first compound 4 µM) it was 0.224.
Turning to NCI-H1944, the relative viability in assay [4] (first compound 0.01 µM) amounted to 0.259; in assay [4] (first compound 0.03162 µM), 0.271; in assay [4] (first compound 0.1 µM) it was 0.244; in assay [4] (first compound 0.3162 µM), 0.228; in assay [4] (first compound 1 µM), 0.248; in assay [2] (first compound 0.04 µM), 0.873. For the same cell line, the relative viability in assay [2] (first compound 0.1265 µM) was found to be 0.963; in assay [2] (first compound 0.4 µM) it was 0.887; in assay [2] (first compound 1.265 µM), 0.945; in assay [2] (first compound 4 µM) it was 0.154; in assay [3] (first compound 0.04 µM) it was 1.08; in assay [3] (first compound 0.1265 µM) it was 1.12. The relative viability came to 1.24 in assay [3] (first compound 1.265 µM) and 0.111 in assay [3] (first compound 4 µM).
As for NCI-H2170, the relative viability in assay [4] (first compound 0.01 µM) stood at 0.781; in assay [4] (first compound 0.03162 µM) it was 0.768; in assay [4] (first compound 0.1 µM), 0.727; in assay [4] (first compound 0.3162 µM), 0.581; in assay [4] (first compound 1 µM), 0.637; in assay [2] (first compound 0.04 µM) it was 1.05. Moreover, the relative viability in assay [2] (first compound 0.1265 µM) stood at 1.03; in assay [2] (first compound 0.4 µM) it was 1.01; in assay [2] (first compound 1.265 µM), 0.841; in assay [2] (first compound 4 µM) it was 0.268.
With NCI-H2342, the relative viability in assay [4] (first compound 0.01 µM) amounted to 0.521; in assay [4] (first compound 0.03162 µM) it was 0.524; in assay [4] (first compound 0.1 µM) it was 0.462; in assay [4] (first compound 0.3162 µM), 0.497; in assay [4] (first compound 1 µM), 0.566; in assay [2] (first compound 0.04 µM), 1.08. Moreover, the relative viability in assay [2] (first compound 0.1265 µM) amounted to 0.98; in assay [2] (first compound 0.4 µM) it was 0.794; in assay [2] (first compound 1.265 µM), 0.735; in assay [2] (first compound 4 µM), 0.453.
In the case of SK-MES-1, the relative viability in assay [4] (first compound 0.01 µM) was 1; in assay [4] (first compound 0.03162 µM) it was 0.977; in assay [4] (first compound 0.1 µM), 0.728; in assay [4] (first compound 0.3162 µM), 0.815; in assay [4] (first compound 1 µM), 0.294; in assay [2] (first compound 0.04 µM) it was 0.876. Besides, the relative viability came out at 0.66 in assay [2] (first compound 0.1265 µM); 0.831 in assay [2] (first compound 0.4 µM); 0.782 in assay [2] (first compound 1.265 µM); 0.324 in assay [2] (first compound 4 µM); 1.05 in assay [3] (first compound 0.04 µM); 1.08 in assay [3] (first compound 0.1265 µM). Also, the relative viability was 0.762 in assay [3] (first compound 0.4 µM), 0.719 in assay [3] (first compound 1.265 µM) and 0.221 in assay [3] (first compound 4 µM).
Regarding SW 900, the relative viability in assay [4] (first compound 0.01 µM) came out at 0.555; in assay [4] (first compound 0.03162 µM), 0.525; in assay [4] (first compound 0.1 µM), 0.544; in assay [4] (first compound 0.3162 µM), 0.609; in assay [4] (first compound 1 µM), 0.537; in assay [2] (first compound 0.04 µM), 0.886. The relative viability came out at 0.787 in assay [2] (first compound 0.1265 µM), 0.444 in assay [2] (first compound 0.4 µM), 0.562 in assay [2] (first compound 1.265 µM) and 0.246 in assay [2] (first compound 4 µM).
